Assay results: patent US10406169B2, “Methods of monitoring estriol therapy” (The Regents of the University of California, priority 2015, dated 2019)

Tested on: relapsing-remitting multiple sclerosis
Experiment: Confirmed relapses (annualized relapse rate, time to first relapse)
Format: in vivo, human
Conditions: for Annualized relapse rate in 12 months, Rate (95% CI) / Annualized relapse rate in 24 months, Rate (95% CI): negative binomial regression
Method: The primary efficacy end point was the annualized relapse rate. A relapse was defined as the appearance of new neurological symptoms or the worsening of pre-existing symptoms, lasting at least 48 hours in a subject who had been neurologically stable or improving in the previous 30 days, accompanied by an objective change in a neurological examination (i.e., a worsening of 0.5 or more points on the EDSS or a worsening by 1.0 or more points on the pyramidal, cerebellar, brainstem or visual functional system scores, not due to fatigue alone and not associated with fever or infection). […] Both treating and examining physicians were unaware of study group assignments. The standard treatment for relapse was a 3-5 day course of glucocorticoids at the discretion of the treating neurologist.
Intention-to-treat analyses were carried out for all end points. […] To control the overall type I error, a sequential testing procedure was applied. […] Consistent with a phase 2 study using a clinical outcome, a p-value<0.10 was considered statistically significant.
For the time to first relapse analysis, Kaplan Meier curves and log-rank test were used to estimate and compare the relapse free probabilities of the two treatment groups. Cox proportional hazards model was used to compare the time to relapse free probabilities between two groups adjusting for covariates. […] The random effect of subject is included in the model to account for within subject correlation.
For the primary endpoint, the main analysis seeks to compare the relapse event rate between treatment groups based on the negative binomial regression. As a sensitivity analysis, recurrent events analysis was performed based on Andersen Gill model to compare the relapse hazard rate between treatment groups.

## glatiramer acetate [Placebo + GA]
Kaplan-Meier
  Proportion of pts with relapse at 12 months % (95% CI): 33.1 (23.5-45.2) %
  Proportion of pts with relapse at 24 months % (95% CI): 42.9 (32.1-55.5) %
  Annualized relapse rate in 12 months, Rate (95% CI): 0.48 (0.33-0.69)
  Annualized relapse rate in 24 months, Rate (95% CI): 0.37 (0.25-0.53)
Listed as Placebo+GA
  Annualized relapse rate in 12 months, Rate (95% CI): 0.48
  Annualized relapse rate in 24 months, Rate (95% CI): 0.37
